The structures appear in SMILES notation.

The data set can be described thus: gradient 5% acetonitrile 3 min, to 50% in 2 min, to 85% in 15 min, held 3 min, 100 µL/min. To be noted: column: Zorbax Extend-C18 2.1 x 50 mm; eluents: water / acetonitrile, 0.1% formic acid. The procedure, abridged:
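Using water and acetonitrile that each contained 0.1% formic acid, mixtures of ~100 pure standards were separated at 100 μL/min on a Zorbax Extend-C18 column (2.1 × 50 mm, 1.8 μm). The HPLC fed a quadrupole time-of-flight mass spectrometer working in positive and negative ionization mode, with dead and dwell volumes of 40 μL and 900 μL. Data were acquired over 3 months. Retention time was read from computationally picked adduct peaks after manual inspection of each.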
On to `CC(C)C(=O)Nc1ccc(OCc2cc(C(=O)NC3CCCC3)no2)cc1`, for which the RP-LC retention time was 837 s.

As for `Cc1noc(C)c1S(=O)(=O)N1CCOC(c2ccccc2)C1` (stereo not given), the RP-LC retention time was 882 s.

Compound `Cc1nc(CNS(=O)(=O)c2cc([N+](=O)[O-])ccc2C)cs1` returned an RP-LC retention time of 716 s.

In the case of `O=C(Nc1cc2c3c(c1)CCC(=O)N3CCC2)C(=O)Nc1ccc2c(c1)OCO2`, the RP-LC retention time stood at 747 s.

`Cc1ccc(NS(=O)(=O)c2ccc(-c3c(C)noc3C)cc2)cc1Cl` yielded an RP-LC retention time of 1040 s.

For `COc1ccc(-c2cc(N3CCCC(C(=O)Nc4cccc5cccnc45)C3)ncn2)cc1` (stereo not given), the RP-LC retention time stood at 629 s.

The compound `Clc1ccc(-c2nc(NCc3cccnc3)c3ccccc3n2)cc1` came in with an RP-LC retention time of 601 s.

Consider `CNC(=O)C1=CCN(C(=O)c2ccc(F)cc2F)CC1`, for which the RP-LC retention time amounted to 644 s.

Take `O=C(Nc1ccc([N+](=O)[O-])cc1O)Nc1ccccc1Br`: the RP-LC retention time was 914 s.

The compound `CC(C)NC(=O)N(CC(=O)N1CCc2sccc2C1COc1cccc(F)c1)CC1CCCO1` (stereo not given) returned an RP-LC retention time of 950 s.

`CCn1cnc2ccc(-c3noc(CCc4c[nH]c5ccccc45)n3)cc21` registered an RP-LC retention time of 735 s.

In the case of `O=C1[C@H]2CN(Cc3ccccc3OC(F)(F)F)C[C@H]2C(=O)N1Cc1ccc2c(c1)OCO2`, the RP-LC retention time was 1050 s.

`Cc1cc(NC(=O)CSc2nc(-c3cccs3)nc3c2c(=O)n(C)c(=O)n3C)no1`: the RP-LC retention time came to 780 s.

The compound `CCCN1CCN(c2ncc3c(n2)CCN(Cc2ccccc2OCC)C3)CC1` displayed an RP-LC retention time of 565 s.

In the case of `O=C(CCC1CCCC1)Nc1nc(-c2ccc(F)cc2)cs1`, the RP-LC retention time is 1210 s.

On to `Cc1cccc(C2(O)C(=O)N(Cc3nc(-c4ccccc4)oc3C)c3ccccc32)c1` (stereo not given), for which the RP-LC retention time stood at 1120 s.

For the compound `O=C(Cc1ccsc1)N1CCn2c(nnc2-c2ccccc2)C1`, the RP-LC retention time stood at 671 s.

`Fc1ccc(Cl)cc1-c1nc(-c2ccc(-n3cccn3)nc2)no1` showed an RP-LC retention time of 1290 s.

Compound `Cc1cc(N(C)C)n2nc(CN3CCCC(C)C3)nc2n1` (stereo not given) returned an RP-LC retention time of 536 s.

As to `CC1CN=C2C=C(N3CCN(C(=O)Nc4ccc(Cl)cc4F)CC3)N=CN21` (stereo not given), the RP-LC retention time turned out to be 630 s.

Take `O=C(CSc1ccc(S(=O)(=O)c2ccccc2)nn1)Nc1ccc2c(c1)OCO2`: the RP-LC retention time came out at 822 s.

For `CCOc1ccc(C(=O)N2CCC3(CC2)NC(=O)c2cc(F)ccc2N3C)cc1`, the RP-LC retention time came to 767 s.

`CC(C)Cc1ccc(S(=O)(=O)N2CC(c3nc(-c4ccncc4)nn3C)C2)cc1` came in with an RP-LC retention time of 787 s.

For `Cc1cccc(CNC(=O)C2(C)Cn3cnc(C(=O)NCc4ccccc4)c3C(=O)N2C2CC2)c1` (stereo not given), the RP-LC retention time came out at 766 s.

With `O=C(NC1CC1)c1ccc(N2CCC(NCc3ccc(F)cc3)C2)nc1` (stereo not given), the RP-LC retention time stood at 553 s.

Regarding `O=C(Nc1cccc(-c2cn3cccnc3n2)c1)c1cccc([N+](=O)[O-])c1`, the RP-LC retention time amounted to 687 s.

Compound `CC(C)(C)C(O)CCNC(=O)NCc1ccc(F)cc1` (stereo not given) gave an RP-LC retention time of 705 s.

For the compound `CCc1noc(-c2ccnc(-n3ncc(C(=O)N4CCSCC4)c3C)c2)n1`, the RP-LC retention time turned out to be 904 s.

The compound `O=C(NC1CCN(Cc2ccccc2)CC1)c1nnc(-c2ccc(S(=O)(=O)N3CCCC3)cc2)o1` gave an RP-LC retention time of 1190 s.

For the compound `O=C(c1ccco1)N1CCN(S(=O)(=O)c2ccc(-c3cc(C(F)(F)F)on3)o2)CC1`, the RP-LC retention time was 951 s.

With `COc1ccc2c(c1)CCc1sc(NC(=O)c3cccc(Br)c3)nc1-2`, the RP-LC retention time is 1240 s.

Consider `O=C(Nc1nccs1)c1csc(Nc2ccccc2)n1`, for which the RP-LC retention time came out at 815 s.

The compound `O=C(CN1CCN(Cc2ccccc2)C(=O)C1=O)N1CCN(c2cccc(Cl)c2)CC1` had an RP-LC retention time of 828 s.

`COc1ccc(N2C=C(C(=O)N3CCCC3)S(=O)(=O)c3ccccc32)cc1` yielded an RP-LC retention time of 764 s.

Take `Oc1ccc(-c2csc(Nc3ccccn3)n2)cc1`: the RP-LC retention time came to 646 s.

In turn, `O=C(NCC1CCCCC1)c1sc2ncccc2c1-n1cccc1` yielded an RP-LC retention time of 1190 s.

On to `O=C1CCCc2nc(N3CCN(c4ccccn4)CC3)ncc21`, for which the RP-LC retention time is 566 s.

Consider `COCCOC(=O)C1=C(C)NC2=C(C(=O)C(C(=O)OC)C(C)C2)C1c1cccc(Cl)c1` (stereo not given), for which the RP-LC retention time was determined as 899 s.

With `COc1ccc(NC(=O)C2CCN(S(=O)(=O)c3cc(C(=O)N4CCCC4)cs3)CC2)cc1`, the RP-LC retention time turned out to be 760 s.

Turning to `CCN(CC)CCCNC(=O)c1noc2c1CCCCC2`, the RP-LC retention time was 632 s.

`O=C(Nc1cccn2cnnc12)c1cnccn1` had an RP-LC retention time of 590 s.

For `CCNC(=O)N1CCC(c2noc(-c3cnccn3)n2)C1` (stereo not given), the RP-LC retention time turned out to be 608 s.

The compound `Cc1ccc(NC(=O)N2CCCC2C(=O)NC(C)C)cc1` (stereo not given) registered an RP-LC retention time of 694 s.

On to `Cc1cc2c(cc1S(=O)(=O)N1CCCC1C(=O)NCc1ccc(Cl)cc1)OCC(=O)N2` (stereo not given), for which the RP-LC retention time was 806 s.

The compound `Cn1ncc2c3ccccc3n(CCCC(=O)NCc3ccccc3F)c2c1=O` displayed an RP-LC retention time of 812 s.

With `Cc1ccc(C(=O)N2CCCCCCNC(=O)[C@@H]3CCCC[C@@H]32)s1`, the RP-LC retention time worked out at 813 s.

For `CCCCn1nc2ccc(S(=O)(=O)N3CCCCC3)cn2c1=O`, the RP-LC retention time was determined as 887 s.

As to `Cc1ccccc1Oc1nccnc1N1CCCC(C(=O)NCc2cccc(C(F)(F)F)c2)C1` (stereo not given), the RP-LC retention time worked out at 1120 s.

In turn, `COC(=O)c1ccccc1NC(=O)Cn1cccc(-c2nc(-c3ccc(OC)c(OC)c3)no2)c1=O` gave an RP-LC retention time of 871 s.

In turn, `O=C(c1ccc(OCC2CCN(C(=O)C3CCCC3)CC2)cc1)N1CCOCC1` had an RP-LC retention time of 764 s.

Turning to `Cc1cc(C)cc(C(=O)N2CCCC(C(=O)NCCc3cccs3)C2)c1` (stereo not given), the RP-LC retention time was 850 s.

`O=C(Nc1ccccc1)c1n[nH]c2c1CCCCCC2` gave an RP-LC retention time of 957 s.

In turn, `CSc1cccc(NC(=O)COc2cccc(-c3nnc4n3CCCC4)c2)c1` came in with an RP-LC retention time of 728 s.

As for `O=C(Cn1ccn2nc(-c3ccc(F)cc3)c(CO)c2c1=O)Nc1ccc(Cl)cc1`, the RP-LC retention time turned out to be 880 s.

`CCSc1nnc(-c2nn(C)c3c2CN(C(=O)Nc2ccc(OC)cc2)CC3)n1CC` gave an RP-LC retention time of 809 s.

In the case of `CCCS(=O)(=O)N1CC(c2nnc(-c3ccncc3)o2)C2(CCOCC2)C1` (stereo not given), the RP-LC retention time turned out to be 625 s.

With `Cc1cccc(-n2c(=O)c3c(cc(C)n3C)n(CC(=O)Nc3c(C)cccc3C)c2=O)c1`, the RP-LC retention time was 906 s.

With `Cc1oc(-c2ccc(NC(=O)c3ccc(Cl)s3)cc2)nc1Cn1cccn1`, the RP-LC retention time came to 980 s.

For the compound `Cc1ccc(Oc2cccc(C(N)=O)c2)nn1`, the RP-LC retention time turned out to be 559 s.

`C=CCn1nnnc1SCC(=O)Nc1ccc(C(=O)OC)cc1` displayed an RP-LC retention time of 701 s.

Consider `O=C(NC1CCCCC1)C1COC2(CCN(C(=O)c3ccco3)CC2)N1C(=O)c1ccccc1` (stereo not given), for which the RP-LC retention time was 748 s.

For `Cc1ccc(N2C(=O)CN(S(=O)(=O)c3ccccc3)CC2(C)C(=O)NC2CCCC2)cc1C` (stereo not given), the RP-LC retention time came to 963 s.

On to `O=C(c1ccc(F)c(F)c1)N1CCN(c2cc(-c3ccc(Cl)cc3)[nH]n2)CC1`, for which the RP-LC retention time came to 900 s.

`CCCN(C)c1nccn2c(=O)n(CC(=O)Nc3ccc(C)cc3)nc12`: the RP-LC retention time amounted to 683 s.

Regarding `COCCNC(=O)c1cc(-c2ccncc2)cn1Cc1ccc(C)cc1`, the RP-LC retention time amounted to 640 s.

As to `Cc1cc(C)cc(C(=O)N2CCCC(COc3ccc(C(=O)NC(C)C)cc3)C2)c1` (stereo not given), the RP-LC retention time came out at 931 s.

`CC1CCC(NC(=O)CN2C(=O)CCCc3cc(S(=O)(=O)N4CCC(C)CC4)ccc32)CC1` (stereo not given) returned an RP-LC retention time of 1040 s.

With `O=C(c1cncnc1)N1CCCn2ccnc2C1C1CCCC1` (stereo not given), the RP-LC retention time came out at 572 s.

`COc1cc(NC(=O)NC2CCN(c3cc(C)cc(C)c3)C2=O)cc(OC)c1` (stereo not given) returned an RP-LC retention time of 818 s.

In turn, `Cc1ccc(NC(=O)N2CCCC2c2nc(-c3ccccc3)no2)cc1C` (stereo not given) had an RP-LC retention time of 1030 s.

Regarding `COc1cccc(-c2noc(Cn3ccn(-c4ccc(Cl)cc4)c(=O)c3=O)n2)c1OC`, the RP-LC retention time stood at 824 s.

`COC(=O)c1cnn2c(C)c(Cc3ccc(C)cc3)c(C)nc12` displayed an RP-LC retention time of 885 s.

As for `CCOc1ccccc1-c1nc(Cc2noc(-c3ccncc3)n2)c(C)o1`, the RP-LC retention time worked out at 918 s.

Compound `COc1ccc(CNC(=O)C2CCCN(c3ccc(=O)n(-c4ccc(C)c(Cl)c4)n3)C2)cc1OC` (stereo not given) came in with an RP-LC retention time of 837 s.

In the case of `Cc1c(Cl)cccc1NC(=O)NCC1CCOCC1`, the RP-LC retention time stood at 720 s.

The compound `COc1ccc(NC(=O)Cc2csc3nc(-c4ccccc4)cn23)cc1` gave an RP-LC retention time of 751 s.

In turn, `Cn1c(N2CCCC(C(=O)NCCN3CCN(c4ccccc4)CC3)C2)cc(=O)n(C)c1=O` (stereo not given) gave an RP-LC retention time of 589 s.

`COc1cc(NC(=O)NCc2cccs2)ccc1N1CCCCC1=O` showed an RP-LC retention time of 645 s.

For the compound `CCCC(=O)N1C[C@@H]2CCCN3CCC[C@@H]([C@H]23)[C@H]1CCCC(=O)NCC1CC1`, the RP-LC retention time was found to be 587 s.

Compound `CCc1ccc(Nc2c(C(=O)N3CCC(C)CC3)cnc3nc(C)ccc23)cc1` gave an RP-LC retention time of 699 s.

Values taken from the METLIN SMRT retention time set (Domingo-Almenara et al. 2019).
